Each compound was assayed against T1, human CB1 receptor (Homo sapiens, UniProt P21554) (assay: Cannabinoid Receptor-1 functional assay: inhibition of CP55940-induced [35S]GTPγS binding to membranes of CHO-K1 cells expressing human CB1). Conditions: 3 nM CP55940, [35S]GTPγS SPA, hCB1 membranes; read-out: IC50 value for antagonizing a CB1 receptor agonist.
T1 construct: expressed in transfected cells; membranes used
Type: biochemical
Method in brief: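 Membranes (5 μg/well) from CHO-K1 cells stably expressing human CB1 incubated 1 hr at room temperature with 1 nM [35S]GTPγS, 3 nM CP55940 and test compound in HEPES pH 7.5 buffer with 1 μM GDP, saponin. Bound label read by SPA after 30 min with beads; IC50 by non-linear regression.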

T1 sequence (P21554 whole entry): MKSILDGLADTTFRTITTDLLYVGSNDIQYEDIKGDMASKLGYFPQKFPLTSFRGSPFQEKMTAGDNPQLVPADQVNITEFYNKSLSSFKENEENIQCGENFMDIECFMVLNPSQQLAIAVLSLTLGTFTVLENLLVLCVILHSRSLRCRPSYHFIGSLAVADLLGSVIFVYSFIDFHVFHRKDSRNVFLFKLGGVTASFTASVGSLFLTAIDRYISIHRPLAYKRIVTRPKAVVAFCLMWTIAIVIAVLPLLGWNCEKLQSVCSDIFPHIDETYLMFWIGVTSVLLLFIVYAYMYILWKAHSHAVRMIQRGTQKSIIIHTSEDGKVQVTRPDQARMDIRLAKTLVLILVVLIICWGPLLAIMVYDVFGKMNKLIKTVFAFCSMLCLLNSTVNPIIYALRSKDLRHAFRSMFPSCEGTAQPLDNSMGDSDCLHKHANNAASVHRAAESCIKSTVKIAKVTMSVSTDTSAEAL

IC50, < 300 nM:
O=C(O)Cc1c(C(=O)N2CCC(Oc3ccc(F)c(F)c3)CC2)nn(-c2ccccc2Cl)c1-c1ccc(Cl)cc1 [[1.61], {1-(2-Chloro-phenyl)-5-(4-chloro-phenyl)-3-[4-(3,4-difluorophenoxy)-piperidine-1-carbonyl]-1H-pyrazol-4-yl}-acetic acid]
O=C(O)Cc1c(C(=O)N2CCC(Oc3cccc(F)c3)CC2)nn(-c2ccccc2Cl)c1-c1ccc(Cl)cc1 [[1.62], {1-(2-Chloro-phenyl)-5-(4-chloro-phenyl)-3-[4-(3-fluorophenoxy)-piperidine-1-carbonyl]-1H-pyrazol-4-yl}-acetic acid]
O=C(O)Cc1c(C(=O)N2CCC(Oc3ncc(F)cn3)CC2)nn(-c2ccccc2Cl)c1-c1ccc(Cl)cc1 [[1.63], {1-(2-Chloro-phenyl)-5-(4-chloro-phenyl)-3-[4-(5-fluoropyrimidin-2-oxy)-piperidine-1-carbonyl]-1H-pyrazol-4-yl}-acetic acid]
O=C(O)Cc1c(C(=O)N2CCC(Oc3ccc(F)cc3)C2)nn(-c2ccccc2Cl)c1-c1ccc(Cl)cc1 (stereo not shown) [[1.64], {1-(2-Chloro-phenyl)-5-(4-chloro-phenyl)-3-[3-(4-fluorophenoxy)-pyrrolidine-1-carbonyl]-1H-pyrazol-4-yl}-acetic acid]
Cc1c(C(=O)N2CCC(C(=O)O)(c3ccccc3)CC2)nn(-c2ccccc2Cl)c1-c1ccc(Cl)cc1 [[2.1], 1-[5-(4-Chloro-phenyl)-1-(2-chloro-phenyl)-4-methyl-1H-pyrazole-3-carbonyl]-4-phenyl-piperidine-4-carboxylic acid]
O=C(c1nn(-c2ccccc2Cl)c(-c2ccc(Cl)cc2)c1Cc1nn[nH]n1)N1CCC(O)(c2ccc(F)cc2)CC1 [[3.2], [1-(2-Chloro-phenyl)-5-(4-chloro-phenyl)-4-(2H-tetrazol-5-ylmethyl)-1H-pyrazol-3-yl]-[4-(4-fluoro-phenyl)-4-hydroxy-piperidin-1-yl]-methanone]
O=C(c1nn(-c2ccccc2Cl)c(-c2ccc(Cl)cc2)c1Cc1nn[nH]n1)N1CCC(c2ccc(F)cc2)CC1 [[3.3], [1-(2-Chloro-phenyl)-5-(4-chloro-phenyl)-4-(2H-tetrazol-5-ylmethyl)-1H-pyrazol-3-yl]-[4-(4-fluoro-phenyl)-piperidin-1-yl]-methanone]
O=C(c1nn(-c2ccccc2Cl)c(-c2ccc(Cl)cc2)c1Cc1nn[nH]n1)N1CCC(c2ccccc2F)CC1 [[3.4], [1-(2-Chloro-phenyl)-5-(4-chloro-phenyl)-4-(2H-tetrazol-5-ylmethyl)-1H-pyrazol-3-yl]-[4-(2-fluoro-phenyl)-piperidin-1-yl]-methanone]
O=C(c1nn(-c2ccccc2Cl)c(-c2ccc(Cl)cc2)c1Cc1nn[nH]n1)N1CCC(Oc2ccccc2)CC1 [[3.5], [1-(2-Chloro-phenyl)-5-(4-chloro-phenyl)-4-(2H-tetrazol-5-ylmethyl)-1H-pyrazol-3-yl]-[4-phenoxy-piperidin-1-yl]-methanone]
O=C(c1nn(-c2ccccc2Cl)c(-c2ccc(Cl)cc2)c1Cc1nn[nH]n1)N1CCC(Oc2ccc(Cl)cc2)CC1 [[3.6], [1-(2-Chloro-phenyl)-5-(4-chloro-phenyl)-4-(2H-tetrazol-5-ylmethyl)-1H-pyrazol-3-yl]-[4-(4-chlorophenoxy)-piperidin-1-yl]-methanone]
O=C(c1nn(-c2ccccc2Cl)c(-c2ccc(Cl)cc2)c1Cc1nn[nH]n1)N1CC(Oc2ccc(F)cc2)C1 [[3.7], [1-(2-Chloro-phenyl)-5-(4-chloro-phenyl)-4-(2H-tetrazol-5-ylmethyl)-1H-pyrazol-3-yl]-[3-(4-fluorophenoxy)-azetidin-1-yl]-methanone]
O=C(c1nn(-c2ccccc2Cl)c(-c2ccc(Cl)cc2)c1Cc1nn[nH]n1)N1CCC(Oc2ccc(F)c(F)c2)CC1 [[3.8], [1-(2-Chloro-phenyl)-5-(4-chloro-phenyl)-4-(2H-tetrazol-5-ylmethyl)-1H-pyrazol-3-yl]-[4-(3,4-difluorophenoxy)-piperidin-1-yl]-methanone]
O=C(c1nn(-c2ccccc2Cl)c(-c2ccc(Cl)cc2)c1Cc1nn[nH]n1)N1CCC(Oc2cccc(F)c2)CC1 [[3.9], [1-(2-Chloro-phenyl)-5-(4-chloro-phenyl)-4-(2H-tetrazol-5-ylmethyl)-1H-pyrazol-3-yl]-[4-(3-fluorophenoxy)-piperidin-1-yl]-methanone]
O=C(c1nn(-c2ccccc2F)c(-c2ccc(Cl)cc2)c1Cc1nn[nH]n1)N1CCC(Oc2ccc(Cl)cc2)CC1 [[4.1], [1-(2-Fluoro-phenyl)-5-(4-chloro-phenyl)-4-(2H-tetrazol-5-ylmethyl)-1H-pyrazol-3-yl]-[4-(4-chlorophenoxy)-piperidin-1-yl]-methanone]
O=C(c1nn(-c2ccccc2F)c(-c2ccc(Cl)cc2)c1Cc1nn[nH]n1)N1CCC(c2ccccc2F)CC1 [[4.2], [1-(2-Fluoro-phenyl)-5-(4-chloro-phenyl)-4-(2H-tetrazol-5-ylmethyl)-1H-pyrazol-3-yl]-[4-(2-fluoro-phenyl)-piperidin-1-yl]-methanone]
O=C(O)Cc1c(C(=O)N2CCC(c3ccccc3F)CC2)nn(-c2ccccc2F)c1-c1ccc(Cl)cc1 [[4.4], {1-(2-Fluoro-phenyl)-5-(4-chloro-phenyl)-3-[4-(2-fluoro-phenyl)-piperidine-1-carbonyl]-1H-pyrazol-4-yl}-acetic acid]
